Values belong to the molecule of their own block, whether it stands above or below them.
How the values were obtained:
[1] = target: Mitogen-activated protein kinase kinase kinase kinase 5 (Homo sapiens) (UniProt Q9Y4K4); conditions: at 10 µM
[2] = target: Serine/threonine-protein kinase PAK 1 (Homo sapiens) (UniProt Q13153); conditions: at 10 µM
[3] = target: Serine/threonine-protein kinase 26 (Homo sapiens, UniProt Q9P289); experiment: Selectivity interaction (Ambit KINOMEscan and KiNATiv profiling in Jurkat cells) EUB0000090b STK26; assay type: cell-based; conditions: at 1 µM
[4] = target: T1, Serine/threonine-protein kinase D1 (Homo sapiens) (UniProt Q15139); experiment: Selectivity interaction (Kinase panel (literature)) EUB0001199aCl PRKD1; conditions: at 1 µM
T1 sequence (whole entry): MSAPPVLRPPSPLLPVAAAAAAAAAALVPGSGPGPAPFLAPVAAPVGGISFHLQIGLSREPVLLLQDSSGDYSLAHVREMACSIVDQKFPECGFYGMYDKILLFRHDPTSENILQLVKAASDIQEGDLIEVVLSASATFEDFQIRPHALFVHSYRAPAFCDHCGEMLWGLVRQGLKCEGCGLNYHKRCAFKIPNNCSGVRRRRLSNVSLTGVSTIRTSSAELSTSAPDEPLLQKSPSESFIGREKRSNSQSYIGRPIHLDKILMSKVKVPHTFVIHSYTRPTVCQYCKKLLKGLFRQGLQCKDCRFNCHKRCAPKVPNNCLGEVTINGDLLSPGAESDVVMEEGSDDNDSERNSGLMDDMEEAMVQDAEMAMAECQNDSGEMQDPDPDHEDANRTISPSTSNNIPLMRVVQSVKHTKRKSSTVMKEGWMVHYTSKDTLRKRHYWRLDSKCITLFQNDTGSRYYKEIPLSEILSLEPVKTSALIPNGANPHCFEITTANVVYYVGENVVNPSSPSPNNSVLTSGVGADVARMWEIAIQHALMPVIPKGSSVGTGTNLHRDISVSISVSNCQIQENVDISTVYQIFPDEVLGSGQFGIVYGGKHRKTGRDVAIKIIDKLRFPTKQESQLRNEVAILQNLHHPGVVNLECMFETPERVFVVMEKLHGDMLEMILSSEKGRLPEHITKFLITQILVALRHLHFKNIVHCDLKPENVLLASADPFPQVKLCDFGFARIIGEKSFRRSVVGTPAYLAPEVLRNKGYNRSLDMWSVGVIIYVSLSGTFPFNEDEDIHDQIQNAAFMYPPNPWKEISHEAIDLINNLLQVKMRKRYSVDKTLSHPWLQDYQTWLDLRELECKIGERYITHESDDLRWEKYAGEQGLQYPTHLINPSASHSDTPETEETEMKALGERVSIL

[5] = target: Serine/threonine-protein kinase PAK 4 (Homo sapiens, UniProt O96013); experiment: Selectivity interaction (KinomeScan (DiscoverX)) EUB0000655a PAK4; conditions: at 10 µM
[6] = target: ALK tyrosine kinase receptor (Homo sapiens, UniProt Q9UM73); experiment: Selectivity interaction (Millipore kinase profiler) EUB0000124b ALK; conditions: at 10 µM
[7] = target: Eukaryotic translation initiation factor 2-alpha kinase 1 (Homo sapiens) (UniProt Q9BQI3); experiment: Selectivity interaction (KinomeScan (DiscoverX)) EUB0000045b EIF2AK1
[8] = target: Tyrosine-protein kinase Fyn (Homo sapiens) (UniProt P06241); conditions: at 10 µM
[9] = target: Ephrin type-A receptor 2 (Homo sapiens) (UniProt P29317); conditions: at 10 µM
[10] = target: Cyclin-dependent kinase 16 (Homo sapiens) (UniProt Q00536); experiment: Selectivity interaction (ActivX KiNativ screen (kinase selectivity in THP-1 cell lysates)) EUB0000639a CDK16; assay type: subcellular; conditions: lysate
[11] = target: T2, Mitogen-activated protein kinase 15 (Homo sapiens) (UniProt Q8TD08); experiment: Selectivity interaction (ProQinase) EUB0000171b MAPK15
T2 sequence (whole entry): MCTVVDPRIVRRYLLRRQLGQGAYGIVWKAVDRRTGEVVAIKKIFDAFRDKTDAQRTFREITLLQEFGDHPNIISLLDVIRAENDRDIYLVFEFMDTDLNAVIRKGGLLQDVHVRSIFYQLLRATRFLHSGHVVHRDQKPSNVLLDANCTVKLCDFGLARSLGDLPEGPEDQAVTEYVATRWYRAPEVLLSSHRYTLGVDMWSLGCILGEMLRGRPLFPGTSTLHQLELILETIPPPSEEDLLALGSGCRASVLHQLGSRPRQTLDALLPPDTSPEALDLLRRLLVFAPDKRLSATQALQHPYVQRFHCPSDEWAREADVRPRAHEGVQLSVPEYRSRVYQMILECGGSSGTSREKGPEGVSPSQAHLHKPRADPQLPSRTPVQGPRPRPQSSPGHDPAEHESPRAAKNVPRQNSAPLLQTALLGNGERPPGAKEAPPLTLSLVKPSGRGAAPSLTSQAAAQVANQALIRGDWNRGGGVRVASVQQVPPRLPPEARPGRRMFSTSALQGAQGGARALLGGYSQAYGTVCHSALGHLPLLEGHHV

[12] = target: MAP kinase-interacting serine/threonine-protein kinase 2 (Homo sapiens, UniProt Q9HBH9); experiment: Selectivity interaction (KinomeScan (DiscoverX)) EUB0001049a MKNK2; conditions: at 1 µM
MAP kinase-interacting serine/threonine-protein kinase 2, sequence (Q9HBH9 whole entry, looked up): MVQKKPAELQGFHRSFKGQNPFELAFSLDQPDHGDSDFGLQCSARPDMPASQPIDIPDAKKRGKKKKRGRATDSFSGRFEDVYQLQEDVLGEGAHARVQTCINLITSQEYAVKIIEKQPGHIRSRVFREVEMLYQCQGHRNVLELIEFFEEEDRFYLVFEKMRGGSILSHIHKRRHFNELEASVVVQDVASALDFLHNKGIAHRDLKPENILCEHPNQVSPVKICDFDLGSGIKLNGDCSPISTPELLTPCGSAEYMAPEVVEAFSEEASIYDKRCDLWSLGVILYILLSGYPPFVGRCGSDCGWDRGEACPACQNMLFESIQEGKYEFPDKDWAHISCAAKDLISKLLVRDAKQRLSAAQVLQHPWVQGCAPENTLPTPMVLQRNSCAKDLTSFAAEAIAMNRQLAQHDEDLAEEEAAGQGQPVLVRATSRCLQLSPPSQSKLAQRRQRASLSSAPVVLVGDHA

Cyclin-dependent kinase 16 (Homo sapiens), sequence (Q00536 whole entry): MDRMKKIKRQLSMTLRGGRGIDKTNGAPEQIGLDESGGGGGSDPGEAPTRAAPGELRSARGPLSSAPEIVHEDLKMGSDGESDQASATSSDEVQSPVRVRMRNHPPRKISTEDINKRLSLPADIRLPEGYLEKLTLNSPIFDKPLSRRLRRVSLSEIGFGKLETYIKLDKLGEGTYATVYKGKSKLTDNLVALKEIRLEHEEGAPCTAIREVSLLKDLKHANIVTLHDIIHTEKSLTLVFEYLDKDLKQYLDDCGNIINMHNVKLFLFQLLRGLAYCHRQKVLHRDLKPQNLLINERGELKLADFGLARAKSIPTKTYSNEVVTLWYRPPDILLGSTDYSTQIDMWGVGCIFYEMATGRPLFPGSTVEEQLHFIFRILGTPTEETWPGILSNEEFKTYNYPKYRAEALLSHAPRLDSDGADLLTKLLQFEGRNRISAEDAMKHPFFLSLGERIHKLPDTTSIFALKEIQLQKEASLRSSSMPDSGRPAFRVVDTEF
Eukaryotic translation initiation factor 2-alpha kinase 1 (Homo sapiens), sequence (Q9BQI3 whole entry): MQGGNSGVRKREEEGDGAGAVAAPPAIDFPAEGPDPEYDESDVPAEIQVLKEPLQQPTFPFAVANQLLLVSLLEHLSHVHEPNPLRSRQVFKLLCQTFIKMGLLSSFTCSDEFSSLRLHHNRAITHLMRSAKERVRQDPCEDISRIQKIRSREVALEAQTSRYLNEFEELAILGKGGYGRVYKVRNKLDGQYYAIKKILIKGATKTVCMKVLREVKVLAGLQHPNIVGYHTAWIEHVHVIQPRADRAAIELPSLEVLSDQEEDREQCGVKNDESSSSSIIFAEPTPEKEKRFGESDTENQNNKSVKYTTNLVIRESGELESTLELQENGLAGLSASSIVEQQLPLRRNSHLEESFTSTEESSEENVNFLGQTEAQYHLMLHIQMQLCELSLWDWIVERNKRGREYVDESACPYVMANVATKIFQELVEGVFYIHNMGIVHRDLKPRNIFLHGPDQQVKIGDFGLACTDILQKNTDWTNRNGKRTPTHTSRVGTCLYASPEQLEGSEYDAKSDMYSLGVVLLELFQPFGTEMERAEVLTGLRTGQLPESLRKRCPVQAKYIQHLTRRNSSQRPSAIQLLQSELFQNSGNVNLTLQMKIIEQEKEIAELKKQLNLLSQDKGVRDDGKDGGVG
Serine/threonine-protein kinase PAK 1 (Homo sapiens), sequence (Q13153 whole entry): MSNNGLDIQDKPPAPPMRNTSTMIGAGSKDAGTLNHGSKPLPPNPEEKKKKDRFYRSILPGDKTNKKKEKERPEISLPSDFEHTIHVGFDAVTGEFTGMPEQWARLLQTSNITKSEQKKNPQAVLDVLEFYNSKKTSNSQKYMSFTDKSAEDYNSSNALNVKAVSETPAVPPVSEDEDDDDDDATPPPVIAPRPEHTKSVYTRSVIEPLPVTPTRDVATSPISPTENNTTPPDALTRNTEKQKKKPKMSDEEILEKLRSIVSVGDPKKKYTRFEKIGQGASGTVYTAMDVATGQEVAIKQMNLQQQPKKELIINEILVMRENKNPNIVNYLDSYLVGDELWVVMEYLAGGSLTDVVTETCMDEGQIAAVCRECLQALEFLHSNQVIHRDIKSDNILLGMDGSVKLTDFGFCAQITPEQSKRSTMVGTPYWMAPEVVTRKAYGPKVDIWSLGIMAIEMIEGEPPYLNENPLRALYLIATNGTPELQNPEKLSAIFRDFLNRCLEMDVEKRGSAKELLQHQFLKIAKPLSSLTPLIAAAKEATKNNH
ALK tyrosine kinase receptor, sequence (Q9UM73 19-1620 limits assumed): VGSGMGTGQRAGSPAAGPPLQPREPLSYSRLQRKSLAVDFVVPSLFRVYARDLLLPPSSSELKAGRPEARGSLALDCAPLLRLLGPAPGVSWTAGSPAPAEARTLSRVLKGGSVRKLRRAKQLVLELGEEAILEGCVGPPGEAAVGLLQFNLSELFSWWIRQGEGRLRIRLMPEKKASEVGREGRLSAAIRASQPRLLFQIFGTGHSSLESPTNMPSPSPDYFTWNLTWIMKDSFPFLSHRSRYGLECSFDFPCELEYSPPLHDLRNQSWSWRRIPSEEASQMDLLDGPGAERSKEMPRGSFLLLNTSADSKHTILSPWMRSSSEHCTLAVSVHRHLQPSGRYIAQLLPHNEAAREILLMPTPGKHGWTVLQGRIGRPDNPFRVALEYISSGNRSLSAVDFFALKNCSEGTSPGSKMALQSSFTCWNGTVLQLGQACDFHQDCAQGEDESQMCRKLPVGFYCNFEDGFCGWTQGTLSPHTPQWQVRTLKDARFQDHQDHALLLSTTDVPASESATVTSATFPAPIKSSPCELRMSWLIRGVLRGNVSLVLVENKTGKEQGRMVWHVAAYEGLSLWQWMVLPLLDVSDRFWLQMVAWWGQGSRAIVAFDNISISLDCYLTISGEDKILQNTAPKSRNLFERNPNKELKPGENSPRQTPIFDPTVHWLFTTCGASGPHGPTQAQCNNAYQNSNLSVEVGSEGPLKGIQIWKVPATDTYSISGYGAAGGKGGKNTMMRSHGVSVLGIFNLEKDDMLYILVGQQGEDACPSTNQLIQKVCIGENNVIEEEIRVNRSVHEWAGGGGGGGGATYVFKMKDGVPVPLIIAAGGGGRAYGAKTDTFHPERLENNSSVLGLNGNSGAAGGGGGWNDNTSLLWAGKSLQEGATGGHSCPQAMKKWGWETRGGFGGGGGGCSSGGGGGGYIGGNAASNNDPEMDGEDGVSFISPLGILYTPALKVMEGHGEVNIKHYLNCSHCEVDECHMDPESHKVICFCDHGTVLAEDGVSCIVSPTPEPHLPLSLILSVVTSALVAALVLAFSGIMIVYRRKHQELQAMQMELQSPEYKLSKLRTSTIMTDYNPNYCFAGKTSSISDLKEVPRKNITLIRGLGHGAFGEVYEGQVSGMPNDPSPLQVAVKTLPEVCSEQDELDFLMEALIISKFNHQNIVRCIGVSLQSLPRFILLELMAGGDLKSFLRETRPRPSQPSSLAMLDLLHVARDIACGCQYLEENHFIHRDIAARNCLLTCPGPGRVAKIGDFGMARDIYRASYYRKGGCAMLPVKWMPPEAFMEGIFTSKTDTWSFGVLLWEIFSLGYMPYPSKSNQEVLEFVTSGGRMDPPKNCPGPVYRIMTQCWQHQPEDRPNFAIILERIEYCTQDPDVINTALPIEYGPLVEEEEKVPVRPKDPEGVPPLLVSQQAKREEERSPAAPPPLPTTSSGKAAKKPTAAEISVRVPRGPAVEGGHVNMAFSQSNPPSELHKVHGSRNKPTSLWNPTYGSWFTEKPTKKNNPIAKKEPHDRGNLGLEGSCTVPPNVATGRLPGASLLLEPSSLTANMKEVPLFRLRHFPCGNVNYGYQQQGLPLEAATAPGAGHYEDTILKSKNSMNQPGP
Serine/threonine-protein kinase 26, sequence (Q9P289 2-416 limits assumed): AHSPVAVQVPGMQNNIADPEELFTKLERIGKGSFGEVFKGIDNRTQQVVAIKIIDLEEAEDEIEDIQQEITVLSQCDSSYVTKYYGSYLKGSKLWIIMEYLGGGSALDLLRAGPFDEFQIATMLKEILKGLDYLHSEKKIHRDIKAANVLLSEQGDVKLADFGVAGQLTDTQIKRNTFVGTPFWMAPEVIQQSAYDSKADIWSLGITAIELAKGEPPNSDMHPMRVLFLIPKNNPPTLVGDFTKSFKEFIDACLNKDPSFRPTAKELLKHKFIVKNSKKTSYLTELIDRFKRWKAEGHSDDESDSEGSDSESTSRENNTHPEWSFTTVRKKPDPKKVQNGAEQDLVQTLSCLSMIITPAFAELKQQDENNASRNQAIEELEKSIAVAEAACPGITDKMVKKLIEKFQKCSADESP
Mitogen-activated protein kinase kinase kinase kinase 5 (Homo sapiens), sequence (Q9Y4K4 whole entry, looked up): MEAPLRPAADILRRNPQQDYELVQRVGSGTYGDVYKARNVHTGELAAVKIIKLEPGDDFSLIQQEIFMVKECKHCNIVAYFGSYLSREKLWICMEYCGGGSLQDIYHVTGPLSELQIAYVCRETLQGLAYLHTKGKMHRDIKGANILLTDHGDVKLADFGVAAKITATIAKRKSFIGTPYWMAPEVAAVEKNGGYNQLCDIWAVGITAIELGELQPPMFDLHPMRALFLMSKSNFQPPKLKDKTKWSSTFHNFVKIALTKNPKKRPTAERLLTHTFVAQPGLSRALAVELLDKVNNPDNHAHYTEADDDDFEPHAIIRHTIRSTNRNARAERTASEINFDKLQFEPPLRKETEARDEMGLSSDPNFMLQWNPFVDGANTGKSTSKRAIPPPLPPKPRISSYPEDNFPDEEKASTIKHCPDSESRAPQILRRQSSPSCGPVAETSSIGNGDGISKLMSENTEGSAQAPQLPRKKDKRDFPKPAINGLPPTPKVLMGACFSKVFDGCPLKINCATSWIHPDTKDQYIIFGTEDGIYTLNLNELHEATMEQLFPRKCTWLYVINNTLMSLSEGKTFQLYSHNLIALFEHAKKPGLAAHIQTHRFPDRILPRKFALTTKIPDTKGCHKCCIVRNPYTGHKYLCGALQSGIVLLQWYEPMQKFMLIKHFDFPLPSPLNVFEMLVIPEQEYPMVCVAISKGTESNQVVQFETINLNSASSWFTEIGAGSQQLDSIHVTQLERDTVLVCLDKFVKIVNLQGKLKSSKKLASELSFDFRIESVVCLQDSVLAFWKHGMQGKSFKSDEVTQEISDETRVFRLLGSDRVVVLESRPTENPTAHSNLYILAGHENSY

% of control [1]: 100%
% of control [2]: 100%
SMILES: CCN(CC)CCCCNc1ncc2cc(-c3cc(OC)cc(OC)c3)c(NC(=O)NC(C)(C)C)nc2n1

SMILES: CN(C)C/C=C/C(=O)Nc1ccc(C(=O)N2CCCC(Nc3ncc(Cl)c(-c4c[nH]c5ccccc45)n3)C2)cc1 (stereo not drawn)
% of control [3]: 88%

% of inhibition [4]: -11%
SMILES: CN1Cc2nccc(-c3cn(C)nc3-c3ccc(F)cc3)c2C1=O

SMILES: CN(C)CCOc1ccc(-c2nc(-c3ccncc3)c(-c3ccc4c(c3)CC/C4=N\O)[nH]2)cc1
% of control [5]: 92%

% of control [6]: 166%
SMILES: CC(=O)Nc1cccc(-n2c(=O)n(C3CC3)c(=O)c3c(Nc4ccc(I)cc4F)n(C)c(=O)c(C)c32)c1

SMILES: C=CC(=O)Nc1cc(-n2c(=O)ccc3cnc4ccc(-c5ccc(NS(C)(=O)=O)cc5)cc4c32)ccc1C
% of control ([7]; at 1 µM): 100%
% of control ([7]; at 10 µM): 100%

SMILES: COCC(=O)NC/C=C/c1ccc2ncnc(Nc3ccc(Oc4ccc(C)nc4)c(C)c3)c2c1 [CP-724714]
% of control [8]: 100%

SMILES: Cc1cc([C@@H](C)Nc2ccccc2C(=O)O)c2nc(N3CCOCC3)cc(=O)n2c1 [AZD-6482]
% of control [9]: 70%

% of inhibition ([10]; at 0.01 µM): 16.3%
% of inhibition ([10]; at 0.04 µM): 18.2%
% of inhibition ([10]; at 0.2 µM): 8.4%
% of inhibition ([10]; at 1 µM): 15.9%
% of inhibition ([10]; at 5 µM): 47.1%
SMILES: CC[C@@H]1[C@H](F)C(=O)N[C@@H]1COc1nccc2cc(C(N)=O)c(OC)cc12 [ZIMLOVISERTIB]

SMILES: C=CC(=O)Nc1cccc(C(=O)Nc2ccc(Nc3cc(-c4[nH]c(SC)nc4C)ccn3)cc2)c1
% of control ([11]; at 1 µM): 66%
% of control ([11]; at 5 µM): 31%

SMILES: COc1cc(Nc2nc(C)cc(-c3cnn4nc(OC)ccc34)n2)cc(C(F)(F)F)c1
% of control [12]: 78%
